Data reported in patent US20260284018A1, “DUAL INHIBITORS OF DYRK1A AND 5-HT2 FOR TREATING A BRAIN DISORDER” (THE REGENTS OF THE UNIVERSITY OF CALIFORNIA, priority 2023, published 2026).

Experiments:
[1] = target: 5-HT2C (Homo sapiens, UniProt P28335); test: Radioligand ([3H]-LSD) competition binding assays, 5-HT2C versus 5-HT2A; conditions: FIG. 4
Experimental: Radioligands Binding Assays. Binding buffer consisted of 50 mM Tris HCl, 10 mM MgCl2, 0.1 mM EDTA disodium dihydrate in autoclaved deionized water. The solution was adjusted to pH 7.4 with […] NaOH(aq) and stored at 4° C. This solution was used for membrane preparation generation as well as in saturation and competition binding assays.
For the generation of membrane preparations, 15-cm plates of PSYLI2 cells (HEK293T cell line stably expressing psychLight2; mycoplasma free) or HEK293T cells (ATCCCRL-11268; mycoplasma free) lipofected with pCMV-GRAB_5-HT were grown in Dulbecco's Modified Eagle Media (DMEM) (Fisher, 11995073) containing 10% fetal bovine serum (Fisher, 26-140-079) and 1% penicillin/streptomycin (Fisher, 15140-163). When the cells were >90% confluent, the media was removed, and the cells were washed with Dulbecco's Phosphate Buffered Saline (DPBS, 15 mL) (ThermoFisher, #14190-250). Next, DMEM (15 mL) lacking fetal bovine serum and penicillin/streptomycin was added, and the cells were serum-starved for 4-12 h. All but ~5 mL of the media was removed from the plates before placing them on ice. […] The suspension was transferred to 2.0 mL Eppendorf tubes in 1.0 mL aliquots, saving a single aliquot of 0.25-0.50 mL suspension to use for quantification of protein concentration via a Bradford assay. […]

[2] = target: T1, human recombinant 5-HT2CR (Homo sapiens, UniProt P28335); test: IPOne HTRF assay, 5-HT2CR; assay type: cell-based; conditions: for antagonist activity at 5-HT2C, IP-One / selectivity of antagonism, 5-HT2C versus 5-HT2A, IP-One: antagonist mode
T1 construct: host or cells: CHO-K1
T1 sequence (P28335 33-458): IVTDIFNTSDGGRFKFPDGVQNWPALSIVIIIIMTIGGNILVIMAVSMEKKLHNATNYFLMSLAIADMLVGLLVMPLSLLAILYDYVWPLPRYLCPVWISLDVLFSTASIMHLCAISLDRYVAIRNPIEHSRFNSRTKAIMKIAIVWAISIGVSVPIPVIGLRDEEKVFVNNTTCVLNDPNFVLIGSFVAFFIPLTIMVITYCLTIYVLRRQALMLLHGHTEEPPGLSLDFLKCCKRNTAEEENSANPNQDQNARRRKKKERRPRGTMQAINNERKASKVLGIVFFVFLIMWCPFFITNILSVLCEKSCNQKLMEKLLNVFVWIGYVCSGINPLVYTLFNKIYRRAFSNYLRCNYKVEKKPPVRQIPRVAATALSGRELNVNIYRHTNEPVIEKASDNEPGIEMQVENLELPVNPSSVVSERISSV
Experimental: IPOne Assays. The 5-HT2AR and 5-HT2CR IPOne HTRF assays were performed at Epics Therapeutics S.A. (Belgium, FAST-0505I) using conventional methods. Briefly, CHO-K1 cells expressing human recombinant 5-HT2AR or 5-HT2CR grown to mid-log phase in culture media without antibiotics were detached with PBS-EDTA, centrifuged, and resuspended in medium without antibiotics buffer. Then, 20,000 cells were distributed in a 96-well plate and incubated overnight at 37° C. with 5% CO2. For agonist testing, the medium was removed and 20 μL of assay buffer plus 20 μL of test compound or reference agonist (α-Me-5-HT) was added to each well. The plate was incubated for 60 min at 37° C. with 5% CO2. For antagonist testing, the medium was removed and 20 μL of assay buffer plus 20 μL of test compound or reference antagonist (ketanserin) was added to each well. The plate was incubated for 60 min at 37° C. with 5% CO2. After addition of the lysis buffer containing IP1-d2 and anti-IP1 cryptate detection reagents, plates were incubated for 1 h at room temperature and fluorescence ratios were measured according to the manufacturer's specifications using the HTRF kit.

[3] = test system: embryonic rat cortical cultures; test: Total neurite length in embryonic rat cortical cultures; assay type: cell-based; conditions: embryonic rat cortical cultures (DIV=0), treated for 72 h
Experimental: Each data point represents a well average from two independent cultures. Data are represented as mean f SEM. *p<0.05, **p<0.01, ***p<0.001, ****p<0.0001, as compared to the vehicle control following a one-way ANOVA with Dunnett's post hoc test. VEH=vehicle; DON=250 nM donepezil; OKA=30 nM okadaic acid.

Row | SMILES | affinity for 5-HT2C relative to 5-HT2A [1] | activation of 5-HT2C, IP-One agonist mode [2] | antagonist activity at 5-HT2C, IP-One [2] | selectivity of antagonism, 5-HT2C versus 5-HT2A, IP-One [2] | average total neurite length per neuron [3]
1 | COc1ccc2c(c1)N(CCN(C)C)/C(=C/C(C)=O)S2.O=C(O)/C=C/C(=O)O [HTW_B_14 fumarate, (Z)-1-(3-(2-(dimethylamino)ethyl)-5-methoxybenzo[d]thiazol-2(3H)-ylidene)propan-2-one Fumarate Salt (1:1)] | higher affinity ligands for 5-HT2C than 5-HT2A | no activation | antagonist activity | moderate selectivity for antagonism of 5-HT2C | significantly increase average total neurite length per neuron
2 | COc1ccc2c3ccnc(C)c3n(CCN(C)C)c2c1.O=C(O)/C=C/C(=O)O [HTW_A_8 fumarate, 2-(7-methoxy-1-methyl-9H-pyrido[3,4-b]indol-9-yl)-N,N-dimethylethan-1-amine Fumarate Salt (2:3)] | higher affinity ligands for 5-HT2C than 5-HT2A | no activation | antagonist activity | moderate selectivity for antagonism of 5-HT2C | significantly increase average total neurite length per neuron
